For orientation: IC50 means the midpoint of a concentration-inhibition curve.

Common to all, as to type: biochemical
Test [1] has as its target human JAK2 catalytic kinase (JH1) domain (Homo sapiens (Human), UniProt O60674). Nature of the test: ADP-Glo Kinase Assay, recombinant JAK2 catalytic kinase (JH1) domain. Particulars: recombinant JH1 domain 0.2 nM, 15 μM ATP, JAK3-974 peptide, mean, read-out: JAK2 biochem IC50 (nM) Mean. Here is the method:
(§1) Compounds of the disclosure were assessed for their ability to inhibit TYK2, JAK1, JAK2, and JAK3 activity. The inhibitory properties of the compounds of the disclosure described herein can be evidenced by testing in any one of the following protocols.
(§2) The kinase activity of recombinantly generated catalytic kinase (also known as JH1) domain of human JAK1, JAK2, JAK3 and TYK2 were evaluated in a plate-based assay using the ADP-Glo™ Kinase Assay platform. Specifically, 4 nM of recombinant JAK1 kinase domain is used to phosphorylate 50 μM of a JAK3-342 (sequence ALVDGYFRLTT) peptide in the presence of 35 μM ATP. Catalytic activities of recombinant JAK2, JAK3 and TYK2 kinase domain (0.2, 0.3 and 2 nM, respectively) are evaluated by the phosphorylation status of the JAK3-974 (50 μM; sequence LPLDKDYYVVR) peptide with the addition of ATP (15, 4 and 10 μM, respectively). The reactions proceed for 100 minutes and the catalytic activity is quantified by first depleting the unused ATP, converting the hydrolyzed ADP into ATP to generate luminescence in a luciferase reaction; which is the basis of the ADP-Glo platform. Compounds are tested at either 10 μM or 1 μM top concentration, 11 points of 3-fold dilution. The data is normalized and the percent activity versus log concentration of compound is fitted with a 4-parameter logistic model to generate a curve and an IC50 value.

Test [2] concerns the target human JAK3 catalytic kinase (JH1) domain (Homo sapiens (Human), UniProt P52333). In words: ADP-Glo Kinase Assay, recombinant JAK3 catalytic kinase (JH1) domain. Particulars: recombinant JH1 domain 0.3 nM, 4 μM ATP, JAK3-974 peptide, mean, read-out: JAK3 biochem IC50 (nM) Mean. The procedure: as §1, §2
Test [3] concerns the target human JAK1 catalytic kinase (JH1) domain (Homo sapiens (Human), UniProt P23458). In words: ADP-Glo Kinase Assay, recombinant JAK1 catalytic kinase (JH1) domain. The following applies: recombinant JH1 domain 4 nM, 35 μM ATP, JAK3-342 peptide, mean, read-out: JAK1 biochem IC50 (nM) Mean. Here is the method:
as §1, §2
(ADP-Glo turns the ADP formed in a reaction into a luminescent signal.)

Test [4] concerns the target human TYK2 catalytic kinase (JH1) domain (Homo sapiens (Human), UniProt P29597). In words: ADP-Glo Kinase Assay, recombinant TYK2 catalytic kinase (JH1) domain. The following applies: recombinant JH1 domain 2 nM, 10 μM ATP, JAK3-974 peptide, mean, read-out: TYK2 biochem IC50 (nM) Mean. The procedure:
as §1, §2

Counter-ions that a name gives are not always drawn.

Chain of human JAK1 catalytic kinase (JH1) domain (P23458 875-1153): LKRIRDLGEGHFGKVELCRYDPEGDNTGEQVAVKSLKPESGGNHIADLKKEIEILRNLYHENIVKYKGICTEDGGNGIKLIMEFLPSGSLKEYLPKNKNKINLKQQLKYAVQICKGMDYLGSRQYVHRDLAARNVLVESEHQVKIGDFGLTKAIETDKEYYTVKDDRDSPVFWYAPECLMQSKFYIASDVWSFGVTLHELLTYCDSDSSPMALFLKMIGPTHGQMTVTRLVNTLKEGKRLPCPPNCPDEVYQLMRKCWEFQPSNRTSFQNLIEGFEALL
Chain of human JAK3 catalytic kinase (JH1) domain (P52333 822-1111): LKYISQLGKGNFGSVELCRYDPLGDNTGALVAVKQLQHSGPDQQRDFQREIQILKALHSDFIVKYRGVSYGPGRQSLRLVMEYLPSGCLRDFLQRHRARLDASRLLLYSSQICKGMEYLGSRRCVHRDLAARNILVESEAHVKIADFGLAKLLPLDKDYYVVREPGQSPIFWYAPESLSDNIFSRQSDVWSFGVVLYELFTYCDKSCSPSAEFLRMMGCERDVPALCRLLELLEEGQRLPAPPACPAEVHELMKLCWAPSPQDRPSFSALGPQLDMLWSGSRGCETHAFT
Chain of human JAK2 catalytic kinase (JH1) domain (O60674 849-1124): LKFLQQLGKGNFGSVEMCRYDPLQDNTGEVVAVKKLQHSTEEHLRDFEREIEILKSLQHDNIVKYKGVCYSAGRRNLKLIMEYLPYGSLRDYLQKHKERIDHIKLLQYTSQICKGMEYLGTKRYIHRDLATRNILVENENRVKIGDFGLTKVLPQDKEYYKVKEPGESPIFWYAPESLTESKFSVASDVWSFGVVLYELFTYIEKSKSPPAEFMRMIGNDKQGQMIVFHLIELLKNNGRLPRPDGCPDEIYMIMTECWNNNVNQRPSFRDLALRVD
Chain of human TYK2 catalytic kinase (JH1) domain (P29597 897-1176): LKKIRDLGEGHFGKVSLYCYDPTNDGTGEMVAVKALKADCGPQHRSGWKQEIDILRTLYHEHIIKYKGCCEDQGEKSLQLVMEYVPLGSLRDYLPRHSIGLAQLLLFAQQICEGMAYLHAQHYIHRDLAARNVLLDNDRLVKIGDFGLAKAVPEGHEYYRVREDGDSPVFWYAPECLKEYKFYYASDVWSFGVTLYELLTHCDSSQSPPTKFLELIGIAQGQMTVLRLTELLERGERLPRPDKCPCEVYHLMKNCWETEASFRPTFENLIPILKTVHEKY

As to `CC(C)(F)C(=O)N1C2CCC1CN(c1ncnn3cc(-c4cnn(C(F)F)c4)cc13)C2` [Example 32, 1-(3-(6-(1-(difluoromethyl)-1H-pyrazol-4-yl)pyrrolo[2,1-f][1,2,4]triazin-4-yl)-3,8-diazabicyclo[3.2.1]octan-8-yl)-2-fluoro-2-methylpropan-1-one trifluoroacetate], the IC50 in test [1] came to 4400 nM; in test [2], 2990 nM; in test [3] it was 1800 nM; in test [4], 242 nM.

For the compound `Cc1cc(-c2cc3c(N4CC5CCC(C4)N5C(=O)[C@@H]4C[C@H]4F)ccnn3c2)ncn1` [Example 106, ((1S,2R)-2-fluorocyclopropyl)(3-(6-(6-methylpyrimidin-4-yl)pyrrolo[1,2-b]pyridazin-4-yl)-3,8-diazabicyclo[3.2.1]octan-8-yl)methanone], the IC50 was 178 nM in test [1], 3200 nM in test [2], 448 nM in test [3] and 13.7 nM in test [4].

For `O=C(C1CC(F)C1)N1C2CCC1CN(c1ncnn3cc(-c4cnn(C(F)F)c4)cc13)C2` (centres unmarked) [Example 48, (3-(6-(1-(difluoromethyl)-1H-pyrazol-4-yl)pyrrolo[2,1-f][1,2,4]triazin-4-yl)-3,8-diazabicyclo[3.2.1]octan-8-yl)(3-fluorocyclobutyl)methanone], the IC50 in test [1] is 8770 nM; in test [2], 9430 nM; in test [3], 3780 nM; in test [4], 483 nM.

`O=C(C1C(F)(F)C12CC2)N1C2CCC1CN(c1ncnn3cc(-c4cnn(C(F)F)c4)cc13)C2` (centres unmarked) [Example 10, (3-(6-(1-(difluoromethyl)-1H-pyrazol-4-yl)pyrrolo[2,1-f][1,2,4]triazin-4-yl)-3,8-diazabicyclo[3.2.1]octan-8-yl)(2,2-difluorospiro[2.2]pentan-1-yl)methanone]: the IC50 in test [1] was 4330 nM; in test [2], 3220 nM; in test [3], 969 nM; in test [4], 207 nM.

Consider `Cn1cc(-c2cc3c(N4CC5CCC(C4)N5C(=O)[C@H]4C[C@@H]4C#N)ncnn3c2)cn1` (racemic) [Example 66, Rac-(1S,2S)-2-(3-(6-(1-methyl-1H-pyrazol-4-yl)pyrrolo[2,1-f][1,2,4]triazin-4-yl)-3,8-diazabicyclo[3.2.1]octane-8-carbonyl)cyclopropane-1-carbonitrile], for which the half-inhibitory concentration (IC50) in test [1] is 3610 nM; in test [2] it was 5540 nM; in test [3], 1510 nM; in test [4] it was 242 nM.

As for `CC1C(C(=O)N2C3CCC2CN(c2ncnn4cc(-c5cnn(C(F)F)c5)cc24)C3)C1(F)F` (centres unmarked) [Example 5, (2,2-difluoro-3-methylcyclopropyl)(3-(6-(1-(difluoromethyl)-1H-pyrazol-4-yl)pyrrolo[2,1-f][1,2,4]triazin-4-yl)-3,8-diazabicyclo[3.2.1]octan-8-yl)methanone], the IC50 is 3050 nM in test [1], 3700 nM in test [2], 707 nM in test [3] and 93.1 nM in test [4].

With `Cn1cc(-c2cc3c(N4CC5CCC(C4)N5S(=O)(=O)[C@@H]4CC4(F)F)ccnn3c2)cn1` [Example 198, 4-(8-(((R)-2,2-difluorocyclopropyl)sulfonyl)-3,8-diazabicyclo[3.2.1]octan-3-yl)-6-(1-methyl-1H-pyrazol-4-yl)pyrrolo[1,2-b]pyridazine], the IC50 in test [1] was determined as 95 nM; in test [2], 652 nM; in test [3], 266 nM; in test [4], 15.1 nM.

In the case of `Cn1cc(-c2nc3c(N4CC5CCC(C4)N5C(=O)[C@@H]4C[C@H]4F)ccnc3[nH]2)c(F)n1` [Example 216, (3-(2-(3-fluoro-1-methyl-1H-pyrazol-4-yl)-3H-imidazo[4,5-b]pyridin-7-yl)-3,8-diazabicyclo[3.2.1]octan-8-yl)((1S,2R)-2-fluorocyclopropyl)methanone], the IC50 in test [1] came to 14 nM; in test [2], 235 nM; in test [3], 41 nM; in test [4], 1.9 nM.

As for `O=C(C1CC1)N1C2CCC1CN(c1ncnn3cc(-c4ccccc4)cc13)C2` [Example 177], the IC50 in test [1] is 10000 nM; in test [2], 4670 nM; in test [3], 1230 nM; in test [4] it was 300 nM.

As to `O=C([C@@H]1C[C@H]1F)N1C2CCC1CN(c1ccnc3[nH]c(N4CCOCC4)nc13)C2` [Example 212, ((1S,2R)-2-fluorocyclopropyl)(3-(2-morpholino-3H-imidazo[4,5-b]pyridin-7-yl)-3,8-diazabicyclo[3.2.1]octan-8-yl)methanone], the IC50 in test [1] turned out to be 650 nM; in test [2], 4220 nM; in test [3], 322 nM; in test [4], 30.5 nM.

As for `Cn1ncc(-c2cc3c(N4CC5CCC(C4)N5C(=O)[C@@H]4C[C@H]4F)ccnn3c2)c1F` [Example 133, (3-(6-(5-fluoro-1-methyl-1H-pyrazol-4-yl)pyrrolo[1,2-b]pyridazin-4-yl)-3,8-diazabicyclo[3.2.1]octan-8-yl)((1S,2R)-2-fluorocyclopropyl)methanone], the IC50 in test [1] worked out at 112 nM; in test [2], 856 nM; in test [3] it was 124 nM; in test [4], 6 nM.

Regarding `Cn1cc(-c2cc3c(N4CC5CCC(C4)N5C(=O)[C@H]4C[C@@H]4F)ncnn3c2)cn1` (racemic) [Example 61, Rac-((1R,2S)-2-fluorocyclopropyl)(3-(6-(1-methyl-1H-pyrazol-4-yl)pyrrolo[2,1-f][1,2,4]triazin-4-yl)-3,8-diazabicyclo[3.2.1]octan-8-yl)methanone], the IC50 in test [1] was found to be 1870 nM; in test [2] it was 3760 nM; in test [3], 992 nM; in test [4], 37.7 nM.

Take `Cn1cc(-c2cc3c(N4CC5CCC(C4)N5C(=O)[C@H]4C[C@H]4C#N)ncnn3c2)cn1` (racemic) [Example 65, Rac-(1R,2S)-2-(3-(6-(1-methyl-1H-pyrazol-4-yl)pyrrolo[2,1-f][1,2,4]triazin-4-yl)-3,8-diazabicyclo[3.2.1]octane-8-carbonyl)cyclopropane-1-carbonitrile]: the IC50 was found to be 9840 nM in test [1], 6790 nM in test [2], 6090 nM in test [3] and 1210 nM in test [4].

With `O=C(C1CC1)N1C2CCC1CN(c1ncnn3cc(-c4ccc5nncn5c4)cc13)C2` [Example 184], the IC50 in test [1] came to 7480 nM; in test [2], 6270 nM; in test [3], 2340 nM; in test [4], 230 nM.

On to `O=C(CC(F)(F)F)N1C2CCC1CN(c1ncnn3cc(-c4cnn(C(F)F)c4)cc13)C2` [Example 43, 1-(3-(6-(1-(difluoromethyl)-1H-pyrazol-4-yl)pyrrolo[2,1-f][1,2,4]triazin-4-yl)-3,8-diazabicyclo[3.2.1]octan-8-yl)-3,3,3-trifluoropropan-1-one], for which the concentration for half-maximal inhibition (IC50) turned out to be 5200 nM in test [1], 4640 nM in test [2], 892 nM in test [3] and 223 nM in test [4].

In the case of `O=C([C@H]1CC1(F)F)N1C2CCC1CN(c1ncnn3cc(-c4cnn(C(F)F)c4)cc13)C2` (single isomer, unassigned) [Example 77], the IC50 in test [1] is 1410 nM; in test [2], 8880 nM; in test [3] it was 1290 nM; in test [4] it was 46.3 nM.

On to `Cn1cc(-c2cc3c(N4CC5CCC(C4)N5C(=O)CC#N)ccnn3c2)cn1` [Example 23, 3-(3-(6-(1-methyl-1H-pyrazol-4-yl)pyrrolo[1,2-b]pyridazin-4-yl)-3,8-diazabicyclo[3.2.1]octan-8-yl)-3-oxopropanenitrile], for which the IC50 in test [1] stood at 117 nM; in test [2] it was 346 nM; in test [3], 137 nM; in test [4], 9.8 nM.

Regarding `Cn1cc(-c2cc3c(N4CC5CCC(C4)N5C(=O)[C@H]4C[C@@H]4F)ncnn3c2)cn1` (single isomer, unassigned) [Example 81], the IC50 in test [1] turned out to be 1450 nM; in test [2], 5610 nM; in test [3], 1420 nM; in test [4], 31.2 nM.

Take `O=C(C1CC1)N1C2CCC1CN(c1ccnc3[nH]c(-c4cnn(C(F)F)c4)cc13)C2` [Example 237, cyclopropyl(3-(2-(1-(difluoromethyl)-1H-pyrazol-4-yl)-1H-pyrrolo[2,3-b]pyridin-4-yl)-3,8-diazabicyclo[3.2.1]octan-8-yl)methanone]: the IC50 in test [1] was found to be 39 nM; in test [2] it was 183 nM; in test [3] it was 50 nM; in test [4] it was 1.1 nM.

For the compound `COc1cc(-c2cc3c(N4CC5CCC(C4)N5S(=O)(=O)C4CC4)ncnc3[nH]2)ccn1` [Example 192], the IC50 in test [1] worked out at 3060 nM; in test [2], 10000 nM; in test [3], 1860 nM; in test [4] it was 298 nM.
